The test system of one series is human tumor xenografts. Particulars: cited from earlier work.
Series [1] is described as follows: Moisture sorption/desorption (VTI SGA-100 moisture balance). Format: physicochemical. The settings on record: for hygroscopicity: from moisture sorption data, 5 to 95% RH; for Weight % chg: start, elapsed time 0.0 min, 25 deg C (RH 14.41% Form A, 9.87% Form B). The text has this: The samples were not dried prior to analysis.
A further series in a line: Grinding of Form A, XRPD. Particulars: ground in an amalgamator for 10 minutes. Format: physicochemical. The text has this:
The XRPD data for the increased amorphous content material obtained by grinding a crystalline polymorph are plotted in FIG. 29. […] Further grinding is expected to increase the amorphous content and further broaden the XRPD pattern with the limit of the XRPD pattern being so broadened that it cannot be discerned above noise. When the XRPD pattern is broadened to the limit of being indiscernable, the material is no longer a crystalline material having increased amorphous content relative to unground crystallized material, but is a material that is wholly amorphous as defined herein.
The sample was then analyzed using XRPD.

Series [2] can be described thus: XRPD after storage in a closed vial at ambient conditions. Type of series: physicochemical. The settings on record: 31 days.
Series [3] can be described thus: Dehydration/desolvation under vacuum, XRPD. Format: physicochemical. The source says: The characterization of this weight loss as THF solvent is supported by the ^1H NMR data.
For series [4] the following is noted: cited from earlier work.

Regarding `CC[C@@]1(O)C(=O)OCc2c1cc1n(c2=O)Cc2cc3c([N+](=O)[O-])cccc3nc2-1` [9-nitrocamptothecin, 9-nitro-20(S)-camptothecin], the “growth of human tumor xenografts” value in the series with human tumor xenografts (immunodeficient nude mice) was “inhibited the growth of human tumor xenografts”. Also, in the series with human tumor xenografts (nude mice), the “regression of established human tumor xenografts” value is “induced regression of human tumors”.
As for `CC[C@@]1(O)C(=O)OCc2c1cc1n(c2=O)Cc2cc3c([N+](=O)[O-])cccc3nc2-1` [Form A, 9-nitrocamptothecin], in series [1], the “hysteresis between the hydration and dehydration curves” value is “A small amount of hysteresis”; the hygroscopicity entry was “not hygroscopic”; the Weight % chg stood at 0.0000%. The “effect of grinding on crystallinity (XRPD)” value in the series “Grinding of Form A, XRPD” was “losing crystallinity after grinding”.
As for `CC[C@@]1(O)C(=O)OCc2c1cc1n(c2=O)Cc2cc3c([N+](=O)[O-])cccc3nc2-1` [Form B, 9-nitrocamptothecin], in series [1], the “hysteresis between the hydration and dehydration curves” value is on record as “essentially no hysterisis”; the hygroscopicity entry is given as “relatively hygroscopic”; the Weight % chg was 0.0000%. In series [2], the “stability of the crystalline form (XRPD pattern vs FIG. 5)” value is “relatively stable”.
Take `CC[C@@]1(O)C(=O)OCc2c1cc1n(c2=O)Cc2cc3c([N+](=O)[O-])cccc3nc2-1` [Form C, 9-nitrocamptothecin]: the “form after attempt to desolvate under vacuum” value in series [3] is recorded as “becomes amorphous”.
With `CC[C@@](O)(C(=O)[O-])c1cc2n(c(=O)c1CO)Cc1cc3ccccc3nc1-2.[Na+]` [Sodium camptothecin], the “side effects in clinical trials” value in series [4] (administered intravenously) is “unpredictable side effects such as myelosuppression and hemorrhagic cystitis”. Besides, the “activity in clinical trials” value in series [4] (solubilized by sodium hydroxide in water, intravenous) was “found to have antineoplastic activity”.

Source of the values: patent US7071202B2 (SuperGen, Inc., priority 2002, dated 2006).
